Data set [1] has as its system ovalbumin-induced pulmonary inflammation, IgE, IL-4 and recall responses. The experiment in a line: Ovalbumin-induced asthma / hypersensitivity model. It is filed as in vivo, mice. The note with it: Group 4: Ova on days 8, 15, 18, 21 & 35, treat BID 14 days, sacrifice day 35 (recent Ova challenge), 0 µg/ml Ova.
Data set [2] deals with THP-1 cells. Kind of data set: Agonist activity: agent in the lower compartment of the migration chamber. It is filed as cell-based, human. From the text: Agents with agonist activity may also be identified using the transwell migration assay, where the cells are placed in the upper compartment (see Figure 1) in the absence of agent, and the agent, e.g. peptide 2[MCP-1], is placed at varying concentrations in the lower compartment in place of the chemokine. […] Preferably, agents having agonist activity also stimulate migration of primary human cells, e.g., monocytes, in a transwell migration assay.
To evaluate the agonist activity ofCRD-Leu4Ile11Cys13 peptide 3(3-12)[MCP-1], CRD-Leu4Ile11Cys13 peptide 3(3-12)[MCP-1] was placed in the lower compartment of the migration chamber at various concentrations and 50,000 THP-1 cells were placed in the upper compartment. The number of cells in the lower compartment after 4 hours was then determined using the vital dye MTT. […] At higher concentrations (1 µM and 10 µM), there may be a small stimulation of migration in this experiment, although the magnitude of this migratory response was less than that seen with 3.25 ng/ml recombinant MCP-1. CRD-Leu4Ile11Cys13 peptide 3(3-12)[MCP-1] is unlikely to have any agonist activity that is significant at concentrations attainable in vivo.

The subject of data set [3] is chemokine-induced THP-1 migration. The experiment in a line: THP-1 trans-well migration assay, several chemokines together (averages, selectivity, pan-chemokine statements). In kind it is cell-based, human. The note with it: for effect on chemokine-induced THP-1 migration (in words): MCP-1, MIP1α, IL-8 and SDF1α. The protocol:
To determine whether an agent inhibits a chemokine-induced activity, such as macrophage recruitment, varying amounts of the agent are mixed with cells in the presence of a known chemoattractant. […] Chemokine (such as MCP-1, MIP1α, IL8 or SDF-1α), at a concentration known to cause significant migration of THP-1 cells in the trans-well migration assay, is placed in the lower compartment (Figure 1). Cells are then incubated at 37°C for a period sufficient to allow migration, e.g., 4 hours. After incubation, the cells are gently removed from the top of the filter with a pipette, 20 µl of 20 mM EDTA in simple PBS is added into each top well, and incubated for 20 minutes at 4°C. The filter is carefully flushed with media using a gentle flow, and removed. […] The media is carefully aspirated from each well, and the converted dye is solubilized by 20 µl of DMSO.
Chemotaxis was induced in a 96-well disposable chemotaxis chamber fitted with a 5 µM polycarbonate filter (PVP free, ChemoTX, Neuroprobe Inc., Cabin John). […] The framed filter was aligned with the holes in the corner of the filter frame and placed over the wells.
Peptides were dissolved in Milli Q water and then serially diluted in culture medium. In most cases, the serially diluted peptides were added to the upper compartment of the chemotaxis chamber. The chamber was incubated at 37°C in a humidified atmosphere of 5% CO2 for 4 hours.
After incubation, the cells were gently removed from the top of the filter with a pipette, 20 µl of 20 mM EDTA in PBS was added into each top well, and the mixture was incubated for 20 minutes at 4°C. The filter was then carefully flushed with media using a gentle flow, and removed. […] The curve was based on a two-fold dilution series of THP-1 cells (top standard 100,000 cells in 29 µl). […] The media was carefully aspirated from each well, and the converted dye was solubilized by 20 µl of DMSO.
Representative chemokines included […] ("CC"), MIP-1α and RANTES, and two alpha-chemokines ("CXC"), IL-8 and SDF-1α. Additionally, to determine the specificity ofpeptide 3(1-12)[MCP-1]
The number of pluses is a qualitative indicating of the activity of each peptide in each assay.

For data set [4] the following is noted: 8.8 mg i.v. bolus.
Data set [5] deals with gp120. The note with it: ns = not significant; >100 = ED50 not determined. The protocol:
Binding assays. Cells (either Jurkat T-cells or THP-1 cells) were grown in RPMI 1640 medium supplemented with 10% fetal calf serum, 2 mM glutamine, 20 µM β-mercaptoethanol, 100 U/ml penicillin and 100 µg/ml streptomycin and maintained between 2 × 10^5 and 1 × 10^6 cells/ml. Prior to performing a binding assay, cells were spun out (100 × g; 4 minutes) and washed 3 times in ice-cold PBS. A volume of cell suspension in PBS containing 10^6 cells (for Jurkat cells) or 4 × 10^5 cells (for THP-1 cells) was pipetted into each well of a V-bottom 96-well plate (Gibco BRL) and spun out (100 x g; 4 minutes). Triplicate wells were then resuspended in 100 µl binding medium (PBS pH 7.2 containing 0.1% fatty acid-free bovine serum albumin (BSA)) containing labeled peptide in the presence or absence of various concentrations of unlabeled peptide. The plate was then incubated on ice for 90 minutes. Cells were washed 3 times with 380 µl of ice-cold PBS, spinning out the cells each time (100 × g; 4 minutes), and resuspended in 100 µl binding medium containing streptavidin-peroxidase (Amersham International) at 1:1000 dilution. Cells were incubated for a further 15 minutes on ice to allow labeling of any bound biotinylated peptide, then washed 4 times as above. Cells were then incubated with 200 µl TMB substrate (K-Blue, Bionostics) for 20 minutes at room temperature, and the reaction stopped by addition of 50 µl 2 M HCl. The plate was spun (3,000 × g; 3 minutes) and 200 µl of the colored product was transferred to an empty 96-well ELISA plate and the absorbance at 450 nm determined. For each assay, the absorbance of a blank reaction (no peptide added) was subtracted from all readings before further analysis.
Binding experiments with labeled peptide 2 were performed with 10 nM labeled peptide in each reaction.

For data set [6], the system named is HIV. In kind it is cell-based. The note with it: ns = not significant.

Where “and” joins values, the source holds several entries; their conditions need not be identical. Equal entries are not always repeated. Positions of bridges follow the written chain, without caps; N, C: chain ends. Non-standard residues stand in square brackets, D forms with d. Residues, ends and D or L forms follow the SMILES beside them. No end group written: not given here. Some results are limits rather than exact numbers.

As for `CC[C@@H](C)[C@H]1NC(=O)[C@@H](CCC(N)=O)NC(=O)[C@H](N)CSSC[C@H](C(N)=O)NC(=O)[C@@H](CC(C)C)NC(=O)[C@@H](CC(=O)O)NC(=O)[C@H]2CCCN2C(=O)[C@@H](CCCCN)NC(=O)[C@@H](CCC(N)=O)NC(=O)[C@@H](CCCCN)NC(=O)[C@@H](Cc2c[nH]c3ccccc23)NC1=O` (H-[dC][dQ][dI][dW][dK][dQ][dK][dP][dD][dL][dC]-NH2; disulfide 1-11), in data set [1], the “IL-4 Assays, pg/ml IL-4, individual mice m1-m4” value is 2.61 pg/mL and 1.11 pg/mL and 5.08 pg/mL and 2.88 pg/mL. The “Total IgM + IgG (1 week splenocyte cultures), individual mice m1-m4” value in data set [1] (listed as CRD-Leu4Ile11Cys13 peptide 3(3-12)[MCP]) is 15.32 and 25.86 and 14.87 and 12.60. Besides, the “agonist activity (in words)” value in data set [2] is recorded as “No agonist activity was detected”. Further, the “effect on chemokine-induced THP-1 migration (in words)” value in data set [3] is on record as “very similar ED50s”. For the same compound, the “Average ED50” value in data set [3] (average inhibitory ED50 for THP-1 migration induced by each of the chemokines) worked out at 100 nM. For the same compound, the “time until serum concentrations decline below LLOQ (in words)” value in data set [4] was “within four hours”.
On to “=cvaekpsksstirrysc= ([dC][dV][dA][dE][dK][dP][dS][dK][dS][dS][dT][dI][dR][dR][dY][dS][dC]; bridge 1-17 (inferred); not fully specified; printed as =cvaekpsksstirrysc=)”, for which the “gp120 ED-50 (µM)” value in data set [5] is “ns”. Besides, in data set [6], the “% virus inhibition” value is “ns”.
For the compound `CC[C@H](C)[C@H](NC(=O)[C@H](C)NC(=O)[C@H](CC(=O)O)NC(=O)[C@@H]1CCCN1C(=O)[C@H](CCC(N)=O)NC(=O)[C@H](C)N)C(=O)N[C@@H](CC(N)=O)C(=O)N[C@@H](C)C(=O)N1CCC[C@H]1C(=O)N[C@H](C(=O)N[C@H](C(=O)N[C@@H](CS)C(=O)N[C@@H](CS)C(=O)O)[C@@H](C)O)C(C)C` [Peptide 1] (H-AQPDAINAPVTCC-OH; N-terminus and C-terminus assumed), in data set [3] (100 µM, CC and CXC chemokines), the % inhibition (as a rule, how much of the control response was suppressed) at 100 µM of migration induced by any of the chemokines tested is not above 20%. For the same compound, in data set [3], the “effect on chemokine-induced THP-1 migration (in words)” value was “no significant effect”.
Turning to CSYRRITSSKSPKEAVC, the “gp120 ED-50” value in data set [5] was more than 100 µM. In addition, the “% virus inhibition” value in data set [6] is listed as “ns”.

(Values after EP2386565A2, “Compounds and methods to inhibit or augment an inflammatory response” (Cambridge Enterprise Ltd., priority 1999, dated 2000).)
